The results in this text go back to patent publication US5204352A, “Compounds exhibiting anti-parasitic activity and a method for their use” (The United States of America as represented by the …, priority 1987, dated 1993).

This assay concerns Trypanosoma rhodesiense. The assay can be described thus: In vivo trypanocidal activity in infected mice (protocol based on Rane et al.). The arrangement: Activity at dosage, value in parentheses (increase in survival): unit not given here. The conditions noted are these: for Activity at dosage (C = Cures) / Activity at dosage, value in parentheses (increase in survival): peritoneal (Table 2). How it is done:
The compounds of the present invention were evaluated biologically in vivo with groups of 5 mice at various dose levels. Unless otherwise indicated, the data are for subcutaneous administration. Dose levels marked with an asterisk are for peritoneal administration in a HEC+T medium. In addition, Table 2 present results of peritoneal administration with substituted quanylhydrazones. The biological evaluation was done according to a standard protocol based on the method described by Rane et al., Amer. J. Trop. Med Hyg. 25:395 (1976). […]

The mark [1] stands for this setting: 13.3* mg/kg, peritoneal in HEC+T medium (Table I).
Where [2] appears, read: 26* mg/kg, peritoneal in HEC+T medium (Table I).
Where [3] appears, read: 106* mg/kg, peritoneal in HEC+T medium (Table I).
Where [4] appears, read: 424* mg/kg, peritoneal in HEC+T medium (Table I).

Structures are written as SMILES.

As to `Cc1ccc2n(c1)cc(-c1ccc(C(=N)N)cc1)[n+]2C` [BK46166], the Increase in survival by setting is: (26.5 mg/kg, subcutaneous) 4.5 days; (53 mg/kg, subcutaneous) 1.6 days; (106 mg/kg, subcutaneous) 5.2 days. Besides, the “Trypanocidal activity, cures” value runs as follows: (26.5 mg/kg, subcutaneous) 2/5; (53 mg/kg, subcutaneous) 2/5; (106 mg/kg, subcutaneous) 2/5.
Turning to `CCN(CC)CCN=C(N)NN=Cc1ccc(-c2cn3ccccc3[n+]2C)cc1` [BK46175], for the setting “0.83 mg/kg, (F), subcutaneous”, the Increase in survival stood at 3.3 days and the “Trypanocidal activity, cures” value is on record as 2/5. In addition, the Increase in survival (0.83 mg/kg, M, subcutaneous) is 6.3 days.
With `C[n+]1c(-c2ccc(C(N)=NO)cc2)cn2cc(Cl)ccc21` [BK46193], the Increase in survival by setting is: (106 mg/kg, subcutaneous) 5.2 days; (212 mg/kg, subcutaneous) 2.9 days. Moreover, the “Trypanocidal activity, cures” value (106 mg/kg, subcutaneous) was 1/5 and the “Trypanocidal activity, cures” value (212 mg/kg, subcutaneous) was 4/5.
Regarding `CN=C(N)NN=Cc1ccc(-c2cn3ccccc3[n+]2C)cc1` [BK46200], the “Trypanocidal activity, cures” value runs as follows: (0.85-1.66 mg/kg, (M), subcutaneous) 5/5; (3.33-6.65 mg/kg, (F), subcutaneous) 5/5.
In the case of `Cc1ccn2cc(-c3ccc(C=NNC(=N)N)cc3)[n+](C)c2c1` [BK46219], under “26.5 mg/kg, subcutaneous”, the Increase in survival came out at 10.0 days and the “Trypanocidal activity, cures” value is listed as 8/10.
As for `CSC(=N)NN=Cc1ccc(-c2cn3ccccc3[n+]2C)cc1` [BK47921], the “Trypanocidal activity, cures” value (26.5 mg/kg, subcutaneous) is listed as 5/5.
Regarding `CN=C(N)NN=Cc1ccc(-c2c([N+](=O)[O-])n3ccccc3[n+]2C)cc1` [BK47958], under “1.66 mg/kg, subcutaneous”, the Increase in survival was 3.0 days and the “Trypanocidal activity, cures” value was 8/10.
For `CN=C(N)NN=Cc1ccc(-c2cn3ccsc3[n+]2C)cc1` [BK47967], the “Trypanocidal activity, cures” value (6.66 mg/kg, subcutaneous) is recorded as 5/5.
As to `CN(C)C(=N)NN=Cc1ccc(-c2cn3ccccc3[n+]2C)cc1` [BK47976], for the setting “6.66 mg/kg, subcutaneous”, the “Trypanocidal activity, cures” value was 5/5.
Consider `C[n+]1c(-c2ccc(C=NNC(=N)N)cc2)c([N+](=O)[O-])n2ccccc21` [BK47985], for which the Increase in survival runs as follows: (1.6 mg/kg, subcutaneous) 7.0 days; (6.6 mg/kg, subcutaneous) 24.0 days. Also, the “Trypanocidal activity, cures” value by setting is: (1.6 mg/kg, subcutaneous) 3/10; (3.3 mg/kg, subcutaneous) 5/5; (6.6 mg/kg, subcutaneous) 4/5.
For `CN(C)C(=N)NN=Cc1ccc(-c2c([N+](=O)[O-])n3ccccc3[n+]2C)cc1` [BK50268], the “Activity at dosage (C = Cures)” value (3.3 mg/kg) is on record as “INAC” and the “Activity at dosage (C = Cures)” value (6.7 mg/kg) is given as “INAC”. For the same molecule, the “Activity at dosage, value in parentheses (increase in survival)” value (“Activity at dosage … (increase in survival)” for short) turned out to be 4.5 (13 mg/kg), 5.0 (26 mg/kg), 9.9 (53 mg/kg) and 12.5 (106 mg/kg).
Turning to `C[n+]1c(-c2ccc(C=NNC(=N)N3CCCC3)cc2)cn2ccccc21` [BK50277], the “Trypanocidal activity, cures” value is recorded as 5/5 (0.1 mg/kg, subcutaneous); 4/5 (0.2 mg/kg, subcutaneous); 5/5 (0.4 mg/kg, subcutaneous); 9/10 (0.8 mg/kg, subcutaneous); 10/10 (1.7 mg/kg, subcutaneous); 5/5 (3.3 mg/kg, subcutaneous).
For the molecule `C[n+]1c(-c2ccc(C=NNc3nccs3)cc2)cn2ccccc21` [BK50302], the Increase in survival runs as follows: (0.2 mg/kg, subcutaneous) 2.0 days; (0.8 mg/kg, subcutaneous) 15.0 days. Further, the “Trypanocidal activity, cures” value is recorded as 3/5 (0.2 mg/kg, subcutaneous); 5/5 (0.4 mg/kg, subcutaneous); 4/5 (0.8 mg/kg, subcutaneous). Besides, the “Activity at dosage (C = Cures)” value runs as follows: (106 mg/kg) “INAC”; (212 mg/kg) “INAC”; (424 mg/kg) “INAC”.
Regarding `C[n+]1c(-c2ccc(C=NNC3=NCCN3)cc2)cn2ccccc21` [BK50311], the Increase in survival (0.42 mg/kg, subcutaneous) worked out at 6.6 days; the Increase in survival (0.83 mg/kg, subcutaneous) stood at 1.5 days; the Increase in survival (1.66 mg/kg, subcutaneous) is recorded as 22.0 days; the Increase in survival (6.6 mg/kg, subcutaneous) turned out to be 10.0 days; the Increase in survival under setting [1] is recorded as 9.0 days; the Increase in survival under setting [2] was 13.5 days. In addition, the “Trypanocidal activity, cures” value by setting is: (0.42 mg/kg, subcutaneous) 2/5; (0.83 mg/kg, subcutaneous) 8/10; (1.66 mg/kg, subcutaneous) 9/10; (3.3 mg/kg, subcutaneous) 5/5; (6.6 mg/kg, subcutaneous) 3/5; (13.3 mg/kg, subcutaneous) 10/10. The “Trypanocidal activity, cures” value runs as follows: under setting [1], 9/10; under setting [2], 13/15; (53* mg/kg, peritoneal in HEC+T medium (Table I)) 5/5; under setting [3], 10/10; (212* mg/kg, peritoneal in HEC+T medium (Table I)) 5/5; under setting [4], 0/10. The “Activity at dosage (C = Cures)” value (0.8 mg/kg) was “INAC”. For the same molecule, the “Activity at dosage … (increase in survival)” value (1.7 mg/kg) worked out at 1.0; the “Activity at dosage … (increase in survival)” value (3.3 mg/kg) is recorded as 1.6; the “Activity at dosage … (increase in survival)” value (6.7 mg/kg) is on record as 7.7; the “Activity at dosage … (increase in survival)” value (13 mg/kg) is listed as 9.0; the “Activity at dosage … (increase in survival)” value (26 mg/kg) was 13.5.
In the case of `C[n+]1c(-c2ccc(C=NNC(=N)N3CCOCC3)cc2)cn2ccccc21` [BK51890], the “Activity at dosage … (increase in survival)” value runs as follows: (0.8 mg/kg) 1.7; (1.7 mg/kg) 10.9; (26 mg/kg) 5.9. The Increase in survival (1.66* mg/kg, peritoneal in HEC+T medium (Table I)) was 10.9 days. Moreover, the “Trypanocidal activity, cures” value reads like this: (3.3* mg/kg, peritoneal in HEC+T medium (Table I)) 5/5; (6.6* mg/kg, peritoneal in HEC+T medium (Table I)) 5/5; (13* mg/kg, peritoneal in HEC+T medium (Table I)) 5/5; under setting [2], 9/10; under setting [3], 5/5; under setting [4], 5/5.
Regarding `C[n+]1c(-c2ccc(C=NNC(=N)N)cc2)c(Br)n2ccccc21` [BK51907], the “Activity at dosage (C = Cures)” value is “INAC” (0.8 mg/kg) and “INAC” (1.7 mg/kg). For the same molecule, the “Activity at dosage … (increase in survival)” value (3.3 mg/kg) came out at 1.2; the “Activity at dosage … (increase in survival)” value (6.7 mg/kg) stood at 3.8; the “Activity at dosage … (increase in survival)” value (13 mg/kg) came to 7.0; the “Activity at dosage … (increase in survival)” value (26 mg/kg) is listed as 10.0; the “Activity at dosage … (increase in survival)” value (424 mg/kg) is listed as 2.0.
For the molecule `Cc1ccc2n(c1)cc(-c1ccc(C=NNc3nc[nH]n3)cc1)[n+]2C` [BK51961], the “Activity at dosage (C = Cures)” value is “INAC” (13 mg/kg), “INAC” (26 mg/kg) and “INAC” (53 mg/kg). For the same molecule, the “Activity at dosage … (increase in survival)” value reads like this: (106 mg/kg) 5.5; (212 mg/kg) 6.3; (424 mg/kg) 6.0.
In the case of `C[n+]1c(-c2ccc(C=NNC3=NCCN3)cc2)cn2ccsc21` [BK62620], under “13.3 mg/kg, subcutaneous”, the Increase in survival was 28.0 days and the “Trypanocidal activity, cures” value is listed as 9/10.
With `C[n+]1c(COc2ccc(C(=N)N)cc2)cn2ccccc21` [BK65330], where the note is “13.3 mg/kg, subcutaneous”, the Increase in survival amounted to 12 days and the “Trypanocidal activity, cures” value is given as 3/5.
For the molecule `C[n+]1c(COc2ccc(C=NNC(=N)NO)cc2)cn2ccccc21` [BK75087], the Increase in survival (0.2 mg/kg, subcutaneous) is given as 5.9 days and the Increase in survival (0.4 mg/kg, subcutaneous) came to 10 days. Moreover, the “Trypanocidal activity, cures” value was 2/5 (0.2 mg/kg, subcutaneous); 3/5 (0.4 mg/kg, subcutaneous); 10/10 (0.8 mg/kg, subcutaneous); 5/5 (6.6 mg/kg, subcutaneous).
For the molecule `CCN=C(NCC)NN=Cc1ccc(OCc2cn3ccccc3[n+]2C)cc1` [BL03933], the Increase in survival (1.6 mg/kg, subcutaneous) was 6.3 days. In addition, the “Trypanocidal activity, cures” value runs as follows: (1.6 mg/kg, subcutaneous) 7/10; (3.3 mg/kg, subcutaneous) 5/5; (6.6 mg/kg, subcutaneous) 5/5.
`C[n+]1ccccc1COc1ccc(C=NNC2=NCCCN2)cc1` [BL07646]: the Increase in survival runs as follows: (1.6 mg/kg, subcutaneous) 3.9 days; (6.6 mg/kg, subcutaneous) 9.9 days; (13 mg/kg, subcutaneous) 4.0 days. For the same molecule, the “Trypanocidal activity, cures” value runs as follows: (1.6 mg/kg, subcutaneous) 1/10; (6.6 mg/kg, subcutaneous) 3/5; (13 mg/kg, subcutaneous) 9/10.
On to `C[n+]1c(-c2ccc(C=CC=NNC(=N)N)cc2)cn2ccccc21` [BL07815], for which the “Trypanocidal activity, cures” value is 0/10 (1.6 mg/kg, subcutaneous); 5/5 (3.3 mg/kg, subcutaneous); 5/5 (6.6 mg/kg, subcutaneous); 10/10 (13 mg/kg, subcutaneous); 15/15 (26 mg/kg, subcutaneous); 5/5 (53 mg/kg, subcutaneous). The “Trypanocidal activity, cures” value (106 mg/kg, subcutaneous) is listed as 10/10.
`C[n+]1c(-c2ccc(C=CC=NNC3=NCCCN3)cc2)cn2ccccc21` [BL07824]: the “Trypanocidal activity, cures” value is, setting by setting: (3.3 mg/kg, subcutaneous) 5/5; (6.6 mg/kg, subcutaneous) 5/5; (13 mg/kg, subcutaneous) 5/5.
